In ChEMBL document CHEMBL4251678, “Coculture of Two Developmental Stages of a Marine-Derived Aspergillus alliaceus Results in the Production of the Cytotoxic Bianthrone Allianthrone A” (J Nat Prod, 2018):
Active and inactive are the calls of the source. The rule behind the calls is not given here.

Columns and labels:
Escherichia coli = experiment: Antimicrobial activity against Escherichia coli ATCC 8739 at 20.5 to 43.5 ug/ml by microbroth method; type: functional, organism-based
PC-3 [1] = experiment: Cytotoxicity against human PC3 cells assessed as reduction in cell viability after 48 hrs by MTT assay; type: functional, cell-based; conditions: PC-3, 48 h
MCF7 [2] = experiment: Cytotoxicity against human MCF7 cells assessed as reduction in cell viability after 48 hrs by MTT assay; type: functional, cell-based; conditions: MCF7, 48 h
HCT-116 [3] = experiment: Cytotoxicity against human HCT116 cells assessed as reduction in cell viability after 48 hrs by MTT assay; type: functional, cell-based; conditions: HCT-116, 48 h
A549 [4] = experiment: Cytotoxicity against human A549 cells assessed as reduction in cell viability after 48 hrs by MTT assay; type: functional, cell-based; conditions: A549, 48 h
SK-MEL-5 [5] = experiment: Cytotoxicity against human SK-MEL-5 cells assessed as reduction in cell viability after 48 hrs by MTT assay; type: functional, cell-based; conditions: SK-MEL-5, 48 h
Bacillus subtilis = experiment: Antimicrobial activity against Bacillus subtilis ATCC 49343 at 20.5 to 43.5 ug/ml by microbroth method; type: functional, organism-based
Candida albicans = experiment: Antifungal activity against Candida albicans ATCC 90027 at 20.5 to 43.5 ug/ml by microbroth method; type: functional, organism-based
Enterococcus faecium = experiment: Antimicrobial activity against Enterococcus faecium ATCC 49032 at 20.5 to 43.5 ug/ml by microbroth method; type: functional, organism-based
Pseudomonas aeruginosa = experiment: Antimicrobial activity against Pseudomonas aeruginosa ATCC 15442 at 20.5 to 43.5 ug/ml by microbroth method; type: functional, organism-based
Staphylococcus aureus = experiment: Antimicrobial activity against Staphylococcus aureus ATCC 25923 at 20.5 to 43.5 ug/ml by microbroth method; type: functional, organism-based
HCT-116 [6] = experiment: Cytotoxicity against human HCT116 cells assessed as cell survival at 250 uM after 48 hrs by MTT assay; type: functional; conditions: HCT-116, 48 h, read-out: Survival
SK-MEL-5 [7] = experiment: Cytotoxicity against human SK-MEL-5 cells assessed as cell survival at 250 uM after 48 hrs by MTT assay; type: functional; conditions: SK-MEL-5, 48 h, read-out: Survival
MCF7 [8] = experiment: Cytotoxicity against human MCF7 cells assessed as cell survival at 250 uM after 48 hrs by MTT assay; type: functional; conditions: MCF7, 48 h, read-out: Survival
PC-3 [9] = experiment: Cytotoxicity against human PC3 cells assessed as cell survival at 250 uM after 48 hrs by MTT assay; type: functional; conditions: PC-3, 48 h, read-out: Survival
A549 [10] = experiment: Cytotoxicity against human A549 cells assessed as cell survival at 250 uM after 48 hrs by MTT assay; type: functional; conditions: A549, 48 h, read-out: Survival

Row | Compound | Activity (Escherichia coli) | IC50 (PC-3 [1]) [µM] | IC50 (MCF7 [2]) [µM] | IC50 (HCT-116 [3]) [µM] | IC50 (A549 [4]) [µM] | IC50 (SK-MEL-5 [5]) [µM] | Activity (Bacillus subtilis) | Activity (Candida albicans) | Activity (Enterococcus faecium) | Activity (Pseudomonas aeruginosa) | Activity (Staphylococcus aureus) | viability at 250 µM (HCT-116 [6]) [%] | viability at 250 µM (SK-MEL-5 [7]) [%] | viability at 250 µM (MCF7 [8]) [%] | viability at 250 µM (PC-3 [9]) [%] | viability at 250 µM (A549 [10]) [%]
1 | COc1cc2c(c(O)c1Cl)C(=O)c1c(O)cc(C[C@H](C)O)cc1[C@H]2[C@H]1c2cc(C[C@H](C)O)cc(O)c2C(=O)c2c1cc(OC)c(Cl)c2O | inactive | > 20 | > 20 | 9 | > 20 | 11 | inactive | inactive | inactive | inactive | inactive | – | – | – | – | –
2 | COc1cc2c(c(O)c1Cl)C(=O)c1c(O)cc(C[C@H](C)O)cc1[C@@H]2[C@H]1c2cc(C[C@H](C)O)cc(O)c2C(=O)c2c1cc(OC)c(Cl)c2O | inactive | > 20 | > 20 | 13.7 | > 20 | 19.7 | inactive | inactive | inactive | inactive | inactive | – | – | – | – | –
3 | COc1cc([C@@H]2c3cc4c(cc3[C@@H](O[C@@H]3O[C@@H]5CO[C@@H](C)O[C@H]5[C@H](O)[C@H]3O)[C@H]3COC(=O)[C@H]23)OCO4)cc(OC)c1O [ETOPOSIDE] | – | – | – | – | – | – | – | – | – | – | – | 11.6 | 26.4 | 43.8 | 45.5 | 19.7
4 | COc1cc2c(c(O)c1Cl)C(=O)c1c(O)cc(C[C@H](C)O)cc1[C@H]2[C@@H]1c2cc(C[C@H](C)O)cc(O)c2C(=O)c2c1cc(OC)c(Cl)c2O | inactive | > 20 | > 20 | 10.5 | > 20 | 12.2 | inactive | inactive | inactive | inactive | inactive | – | – | – | – | –
